Measured values reported in patent publication US20180055032A1, “ODORS FOR PSYLLID TRAPPING, REPELLING AND CONTROL” (The Regents of the University of California, priority 2011, published 2018).

Tests used:
[1] = test system: ACP; conditions: small plot field trial, cited from earlier work
[2] = test system: neuron 7B (rhinarial plate on flagellomere 7); type: cell-based, Diaphorina citri; conditions: for odor response (frequency of action potentials during stimulus minus baseline), 7B: Table 1, odor diluted to 1%, 50 μL in cartridge; for response to ultra-prolonged activators, 7B: key: 0, no response; +, >50 spikes/second; ++, >100 spikes/second; +++, >150 spikes/second
[3] = test system: neuron 7C (rhinarial plate on flagellomere 7); experiment: single-sensillum electrophysiology, odor response of neuron 7C; type: cell-based, Diaphorina citri; conditions: for odor response (frequency of action potentials during stimulus minus baseline), 7C: Table 1, odor diluted to 1%, 50 μL in cartridge
[4] = test system: neuron 6B (rhinarial plate on flagellomere 6); experiment: single-sensillum electrophysiology, odor response of neuron 6B; type: cell-based, Diaphorina citri; conditions: for odor response (frequency of action potentials during stimulus minus baseline), 6B: Table 1, odor diluted to 1%, 50 μL in cartridge
[5] = test system: neuron 2B (rhinarial plate on flagellomere 2); experiment: single-sensillum electrophysiology, odor response of neuron 2B; type: cell-based, Diaphorina citri; conditions: for odor response (frequency of action potentials during stimulus minus baseline), 2B: Table 1, odor diluted to 1%, 50 μL in cartridge; for response to ultra-prolonged activators, 2B: key: 0, no response; +, >50 spikes/second; ++, >100 spikes/second; +++, >150 spikes/second
[6] = test system: neuron 7A (rhinarial plate on flagellomere 7); experiment: single-sensillum electrophysiology, odor response of neuron 7A; type: cell-based, Diaphorina citri; conditions: for odor response (frequency of action potentials during stimulus minus baseline), 7A: Table 1, odor diluted to 1%, 50 μL in cartridge; for all read-outs here: key: 0, no response; +, >50 spikes/second; ++, >100 spikes/second; +++, >150 spikes/second
[7] = test system: neuron 6A (rhinarial plate on flagellomere 6); experiment: single-sensillum electrophysiology, odor response of neuron 6A; type: cell-based, Diaphorina citri; conditions: for odor response (frequency of action potentials during stimulus minus baseline), 6A: Table 1, odor diluted to 1%, 50 μL in cartridge
[8] = test system: neuron 2C (rhinarial plate on flagellomere 2); experiment: single-sensillum electrophysiology, odor response of neuron 2C; type: cell-based, Diaphorina citri; conditions: for odor response (frequency of action potentials during stimulus minus baseline), 2C: Table 1, odor diluted to 1%, 50 μL in cartridge
[9] = test system: neuron 2A (rhinarial plate on flagellomere 2); experiment: single-sensillum electrophysiology, odor response of neuron 2A; type: cell-based, Diaphorina citri; conditions: for odor response (frequency of action potentials during stimulus minus baseline), 2A: Table 1, odor diluted to 1%, 50 μL in cartridge; for all read-outs here: key: 0, no response; +, >50 spikes/second; ++, >100 spikes/second; +++, >150 spikes/second
[10] = test system: neuron 6C (rhinarial plate on flagellomere 6); experiment: single-sensillum electrophysiology, odor response of neuron 6C; type: cell-based, Diaphorina citri; conditions: for odor response (frequency of action potentials during stimulus minus baseline), 6C: Table 1, odor diluted to 1%, 50 μL in cartridge
[11] = test system: neuron 4B (rhinarial plate on flagellomere 4); type: cell-based, Diaphorina citri; conditions: for odor response (frequency of action potentials during stimulus minus baseline), 4B: Table 1, odor diluted to 1%, 50 μL in cartridge
[12] = test system: ACP; conditions: cited from earlier work
[13] = test system: neuron 4A (rhinarial plate on flagellomere 4); experiment: single-sensillum electrophysiology, odor response of neuron 4A; type: cell-based, Diaphorina citri; conditions: for odor response (frequency of action potentials during stimulus minus baseline), 4A: Table 1, odor diluted to 1%, 50 μL in cartridge
[14] = test system: neuron 4C (rhinarial plate on flagellomere 4); experiment: single-sensillum electrophysiology, odor response of neuron 4C; type: cell-based, Diaphorina citri; conditions: for odor response (frequency of action potentials during stimulus minus baseline), 4C: Table 1, odor diluted to 1%, 50 μL in cartridge
[15] = Table 3, 10^−2 in paraffin oil, 50 μL, odor puff of 0.5 sec

Row | SMILES | odor response (frequency of action potentials during stimulus minus baseline), 7B [2] | odor response (frequency of action potentials during stimulus minus baseline), 7C [3] | odor response (frequency of action potentials during stimulus minus baseline), 6B [4] | odor response (frequency of action potentials during stimulus minus baseline), 2B [5] | odor response (frequency of action potentials during stimulus minus baseline), 7A [6] | odor response (frequency of action potentials during stimulus minus baseline), 6A [7] | odor response (frequency of action potentials during stimulus minus baseline), 2C [8] | odor response (frequency of action potentials during stimulus minus baseline), 2A [9] | odor response (frequency of action potentials during stimulus minus baseline), 6C [10] | odor response (frequency of action potentials during stimulus minus baseline), 4B [11] | odor response (frequency of action potentials during stimulus minus baseline), 4A [13] | odor response (frequency of action potentials during stimulus minus baseline), 4C [14] | further results
1 | CSSC [DMDS, dimethyl disulfide] | – | – | – | – | – | – | – | – | – | – | – | – | reduction in ACP densities ([1]; low psyllid density area (average 3-4 ACP/10 trees)): 65%; duration of reduction in ACP densities [1]: up to three
2 | COC(=O)c1ccccc1O [methyl salicylate] | + (+, >50 spikes/second) | 0 | + (+, >50 spikes/second) | 0 | 0 | 0 | 0 | 0 | 0 | + (+, >50 spikes/second) | 0 | 0 | ACP behavior in lab behavior assays ([12]; at lower concentration): attracted; ACP behavior in laboratory behavioral assays ([12]; high amounts, as released by citrus plants under physical stress): repellency
3 | CC1=CC=C(C(C)C)CC1 [α-terpinene] | 0 | 0 | ++ (++, >100 spikes/second) | 0 | 0 | 0 | 0 | 0 | 0 | ++ (++, >100 spikes/second) | 0 | 0 | –
4 | C=C(C)C1CC=C(C)CC1 (single isomer, unassigned; (+)) [(+)-limonene] | 0 | 0 | + (+, >50 spikes/second) | 0 | 0 | 0 | + (+, >50 spikes/second) | 0 | 0 | + (+, >50 spikes/second) | 0 | 0 | –
5 | C=C/C(C)=C/CC=C(C)C [E-β-Ocimene] | 0 | 0 | 0 | 0 | 0 | 0 | ++ (++, >100 spikes/second) | 0 | 0 | 0 | 0 | 0 | –
6 | CC(C)=CCCC(C)CC=O (stereo not shown) [citronellal] | 0 | 0 | 0 | 0 | 0 | 0 | + (+, >50 spikes/second) | 0 | 0 | 0 | 0 | 0 | –
7 | CC(=O)OCC(C)C [isobutyl acetate] | 0 | 0 | ++ (++, >100 spikes/second) | 0 | 0 | 0 | 0 | 0 | 0 | ++ (++, >100 spikes/second) | 0 | 0 | –
8 | CCCC(=O)OC [methyl butyrate] | 0 | + (+, >50 spikes/second) | + (+, >50 spikes/second) | 0 | 0 | 0 | 0 | 0 | 0 | ++ (++, >100 spikes/second) | 0 | 0 | –
9 | CCCCCCO [1-hexanol] | 0 | 0 | + (+, >50 spikes/second) | 0 | 0 | 0 | 0 | 0 | 0 | + (+, >50 spikes/second) | 0 | 0 | response to ultra-prolonged activators, 7B [2, 15]: 0; response to ultra-prolonged activators, 7C [3, 15]: 0; response to ultra-prolonged activators, 6B [4, 15]: + (+, >50 spikes/second); response to ultra-prolonged activators, 2B [5, 15]: 0; response to ultra-prolonged activators, 7A [6, 15]: 0; response to ultra-prolonged activators, 6A [7, 15]: 0; response to ultra-prolonged activators, 2C [8, 15]: 0; response to ultra-prolonged activators, 2A [9, 15]: 0; response to ultra-prolonged activators, 6C [10, 15]: 0; response to ultra-prolonged activators, 4B [11, 15]: + (+, >50 spikes/second); response to ultra-prolonged activators, 4A [13, 15]: 0; response to ultra-prolonged activators, 4C [14, 15]: 0
10 | CC(=O)CCC=C(C)C [6-methyl-5-hepten-2-one] | 0 | 0 | 0 | 0 | 0 | 0 | + (+, >50 spikes/second) | 0 | 0 | 0 | 0 | 0 | –
11 | O=CCc1ccccc1 [phenylacetaldehyde] | 0 | 0 | + (+, >50 spikes/second) | 0 | 0 | 0 | 0 | 0 | 0 | + (+, >50 spikes/second) | 0 | 0 | –
